The values that follow come from patent US12655153B2, “Solid forms of a HBV core protein allosteric modifier” (Hoffmann-La Roche Inc., priority 2019, dated 2026).

Converted amounts (≈) assume the structure as drawn. “Also recorded” adds a separate entry of the source.

Holding throughout (format): physicochemical
Series [1] can be described thus: Apparent solubility study in pH buffers (50 mM), 25° C., 24 hours, HPLC. The conditions noted are these: for Final pH: after 24 hours; for Solubility: 25° C. Here is the method: Apparent solubility was determined by suspending 5 mg of compound (I) in different bio-relevant media including pH buffers (50 mM). The suspensions were equilibrated at 25° C. for 24 hours. The suspensions were then filtered through a 0.22 μm PVDF filter into a 2-mL HPLC vial. The quantification of the filtrate was conducted by HPLC with reference to a standard solution.

Series [2] in a line: Apparent solubility in purified water, 25° C., 24 hours, HPLC, residue by XRPD. The conditions noted are these: for Solubility / Final pH / XRPD of residue: purified water; for Solubility: 25° C., 24 hours; for Final pH / XRPD of residue: after 24 hours. As to the method: Apparent solubility in water was determined by suspending 5 mg of compound (I) in purified water. The suspensions were equilibrated at 25° C. for 24 hours. The suspensions were then filtered through a 0.22 μm PVDF filter into a 2-mL HPLC vial. The quantitation of the filtrate was conducted by HPLC with reference to a standard solution. The solids were analyzed by XRPD.

A short description of series [3]: Physical stability of solid forms (general statements, accelerated and long term stability testing). The conditions noted are these: conditions not stated. The source says: Developing novel forms of compound (I) with good processability or acceptable aqueous solubility is one of the objectives of current invention. Some novel solid forms enhance the developability of compound (I) fundamentally. The physical stability of drug substances is an integral part of the systematic approach to the stability evaluation of pharmaceuticals due to its potential impacts on drug chemical stability performance and safety. The greater the stability is, the longer the shelf life could be. Therefore, the accelerated and long term stability testing used in this invention could be used to predict shelf lives.

Series [4] in a line: Stability of solid forms, stability chamber 40° C. and 75%-RH, XRPD after 1 month. The conditions noted are these: 40° C./75%-RH. As to the method: 40 mg of compound (I) in different solid forms were stored in a stability chamber with temperature and humidity controlled at 40° C. and 75%-RH, respectively. After 1 month, the samples were analyzed by XRPD to check their solid form and compared with their initial solid form.

A short description of series [5]: Stability of solid forms, stability chamber 25° C. and 60%-RH, XRPD after 1 month. The conditions noted are these: 25° C./60%-RH. As to the method: 20 mg of compound (I) in different solid forms were stored in a stability chamber with temperature and humidity controlled at 25° C. and 60%-RH. After 1 month, the samples were analyzed by XRPD to check their solid form and compared with their initial solid form.

Where [6] appears, read: listed as Example 3, Form A of compound (I).
[7] abbreviates: listed as Example 1, Form D of compound (I).
The mark [8] stands for this setting: listed as Example 16, Form H of compound (I).

One may read the solubility as the concentration that dissolves in the medium under given conditions. What is called Solubility is the concentration that dissolves in the medium under given conditions.

As for `CCOC(=O)C1=C(CN2CCN3C(=O)N(CC(C)(C)C(=O)O)C[C@@H]3C2)NC(c2nccs2)=N[C@H]1c1cccc(F)c1C` [Form A, 3-[(8aS)-7-[[(4S)-5-ethoxycarbonyl-4-(3-fluoro-2-methyl-phenyl)-2-thiazol-2-yl-1,4-dihydropyrimidin-6-yl]methyl]-3-oxo-5,6,8,8a-tetrahydro-1H-imidazo[1,5-a]pyrazin-2-yl]-2,2-dimethyl-propanoic acid], the solubility at 24 h in series [1] (pH 1 buffer (50 mM), 25 °C, pH 1, aqueous buffer, thermodynamic from solid, pH 1 buffer, 24 hours) is 940 µg/mL (≈ 1570 µM). The “Final pH” value in series [1] (pH 1 buffer, listed as Example 3, Form A of compound (I)) is given as 1.05; in series [1] (pH 3 buffer, listed as Example 3, Form A of compound (I)), 2.97; in series [1] (pH 5 buffer, listed as Example 3, Form A of compound (I)), 4.99; in series [1] (pH 7 buffer, listed as Example 3, Form A of compound (I)), 6.98; in series [1] (pH 9 buffer, listed as Example 3, Form A of compound (I)), 8.46; in series [2] (setting [6]) it was 6.97. In addition, the Solubility was found to be 66 µg/mL (≈ 110 µM) in series [1] (pH 3 buffer, 24 hours, listed as Example 3, Form A of compound (I)); 4 µg/mL (≈ 6.68 µM) in series [1] (pH 5 buffer, 24 hours, listed as Example 3, Form A of compound (I)); 72 µg/mL (≈ 120 µM) in series [1] (pH 7 buffer, 24 hours, listed as Example 3, Form A of compound (I)); 4820 µg/mL (≈ 8050 µM) in series [1] (pH 9 buffer, 24 hours, listed as Example 3, Form A of compound (I)); 50 µg/mL (≈ 83.5 µM) in series [2] (setting [6]). In series [2] (setting [6]), the XRPD of residue result is listed as “Form A”.
Consider `CCOC(=O)C1=C(CN2CCN3C(=O)N(CC(C)(C)C(=O)O)C[C@@H]3C2)NC(c2nccs2)=N[C@H]1c1cccc(F)c1C` [Form Amorphous, 3-[(8aS)-7-[[(4S)-5-ethoxycarbonyl-4-(3-fluoro-2-methyl-phenyl)-2-thiazol-2-yl-1,4-dihydropyrimidin-6-yl]methyl]-3-oxo-5,6,8,8a-tetrahydro-1H-imidazo[1,5-a]pyrazin-2-yl]-2,2-dimethyl-propanoic acid], for which the “Physical / solid state stability” value in series [3] was “significantly improved stability compared with Form D”.
For `CCOC(=O)C1=C(CN2CCN3C(=O)N(CC(C)(C)C(=O)O)C[C@@H]3C2)NC(c2nccs2)=N[C@H]1c1cccc(F)c1C` [Form D, 3-[(8aS)-7-[[(4S)-5-ethoxycarbonyl-4-(3-fluoro-2-methyl-phenyl)-2-thiazol-2-yl-1,4-dihydropyrimidin-6-yl]methyl]-3-oxo-5,6,8,8a-tetrahydro-1H-imidazo[1,5-a]pyrazin-2-yl]-2,2-dimethyl-propanoic acid], in series [4], the “Solid form stability compared with Form D” value is recorded as “better solid form stability than the original Form D”. Also, the “Physical stability (solid form by XRPD)” value in series [4] (setting [7]) and in series [5] (setting [7]) was “solid form change” throughout. The “Physical / solid state stability” value in series [3] is on record as “physically unstable”.
In the case of `CCOC(=O)C1=C(CN2CCN3C(=O)N(CC(C)(C)C(=O)O)C[C@@H]3C2)NC(c2nccs2)=N[C@H]1c1cccc(F)c1C` [Form H, 3-[(8aS)-7-[[(4S)-5-ethoxycarbonyl-4-(3-fluoro-2-methyl-phenyl)-2-thiazol-2-yl-1,4-dihydropyrimidin-6-yl]methyl]-3-oxo-5,6,8,8a-tetrahydro-1H-imidazo[1,5-a]pyrazin-2-yl]-2,2-dimethyl-propanoic acid], the Solubility in series [1] (pH 1 buffer, 24 hours, listed as Example 16, Form H of compound (I)) was 1581 µg/mL (≈ 2640 µM); in series [1] (pH 3 buffer, 24 hours, listed as Example 16, Form H of compound (I)) it was 56 µg/mL (≈ 93.5 µM); in series [1] (pH 5 buffer, 24 hours, listed as Example 16, Form H of compound (I)) it was 6 µg/mL (≈ 10 µM); in series [1] (pH 7 buffer, 24 hours, listed as Example 16, Form H of compound (I)) it was 244 µg/mL (≈ 408 µM); in series [1] (pH 9 buffer, 24 hours, listed as Example 16, Form H of compound (I)) it was over 10000 µg/mL; in series [2] (setting [8]) it was 453 µg/mL (≈ 757 µM). Further, the “Final pH” value in series [1] (pH 1 buffer, listed as Example 16, Form H of compound (I)) is 1.08; in series [1] (pH 3 buffer, listed as Example 16, Form H of compound (I)), 3.01; in series [1] (pH 5 buffer, listed as Example 16, Form H of compound (I)) it was 5.03; in series [1] (pH 7 buffer, listed as Example 16, Form H of compound (I)), 6.97; in series [1] (pH 9 buffer, listed as Example 16, Form H of compound (I)), 8.90; in series [2] (setting [8]), 7.35. In addition, the “Solubility compared with Form A” value in series [1] (pH7 and pH9) was “higher solubility than Form A at pH7 and pH9”. Further, in series [5], the “Stability compared with Form D” value is recorded as “better stability than the original Form D”. For the same compound, in series [5] (setting [8]), the “Physical stability (solid form by XRPD)” value was “no solid form change”. Also, in series [2] (setting [8]), the XRPD of residue entry is recorded as “Form H”. The “Water solubility compared with Form A” value in series [2] (water) is reported as “unexpected higher water solubility than Form A; also recorded: significant higher water solubility than the anhydrate Form A”. The “Physical / solid state stability” value in series [3] is reported as “improved stability compared with Form D; also recorded: acceptable solid state stability”.
Take `CCOC(=O)C1=C(CN2CCN3C(=O)N(CC(C)(C)C(=O)O)C[C@@H]3C2)NC(c2nccs2)=N[C@H]1c1cccc(F)c1C` [Form Q, 3-[(8aS)-7-[[(4S)-5-ethoxycarbonyl-4-(3-fluoro-2-methyl-phenyl)-2-thiazol-2-yl-1,4-dihydropyrimidin-6-yl]methyl]-3-oxo-5,6,8,8a-tetrahydro-1H-imidazo[1,5-a]pyrazin-2-yl]-2,2-dimethyl-propanoic acid]: the Solubility is 1560 µg/mL in series [1] (pH 1 buffer, 24 hours, listed as Example 24, potassium salt Form Q of compound (I)); 3580 µg/mL in series [1] (pH 7 buffer, 24 hours, listed as Example 24, potassium salt Form Q of compound (I)); over 10000 µg/mL in series [1] (pH 9 buffer, 24 hours, listed as Example 24, potassium salt Form Q of compound (I)). The “Final pH” value in series [1] (pH 1 buffer, listed as Example 24, potassium salt Form Q of compound (I)) came out at 1.1; in series [1] (pH 3 buffer, listed as Example 24, potassium salt Form Q of compound (I)) it was 3.49; in series [1] (pH 5 buffer, listed as Example 24, potassium salt Form Q of compound (I)), 5.17; in series [1] (pH 7 buffer, listed as Example 24, potassium salt Form Q of compound (I)) it was 6.97; in series [1] (pH 9 buffer, listed as Example 24, potassium salt Form Q of compound (I)), 8.71.
